Where a name gives a salt, the structure may show the parent alone.
Biological target: T1, Calcium Sensing Receptor (CaSR) (Homo sapiens, UniProt P41180)
T1 construct: expressed in transfected cells
T1 sequence (P41180 20-1078): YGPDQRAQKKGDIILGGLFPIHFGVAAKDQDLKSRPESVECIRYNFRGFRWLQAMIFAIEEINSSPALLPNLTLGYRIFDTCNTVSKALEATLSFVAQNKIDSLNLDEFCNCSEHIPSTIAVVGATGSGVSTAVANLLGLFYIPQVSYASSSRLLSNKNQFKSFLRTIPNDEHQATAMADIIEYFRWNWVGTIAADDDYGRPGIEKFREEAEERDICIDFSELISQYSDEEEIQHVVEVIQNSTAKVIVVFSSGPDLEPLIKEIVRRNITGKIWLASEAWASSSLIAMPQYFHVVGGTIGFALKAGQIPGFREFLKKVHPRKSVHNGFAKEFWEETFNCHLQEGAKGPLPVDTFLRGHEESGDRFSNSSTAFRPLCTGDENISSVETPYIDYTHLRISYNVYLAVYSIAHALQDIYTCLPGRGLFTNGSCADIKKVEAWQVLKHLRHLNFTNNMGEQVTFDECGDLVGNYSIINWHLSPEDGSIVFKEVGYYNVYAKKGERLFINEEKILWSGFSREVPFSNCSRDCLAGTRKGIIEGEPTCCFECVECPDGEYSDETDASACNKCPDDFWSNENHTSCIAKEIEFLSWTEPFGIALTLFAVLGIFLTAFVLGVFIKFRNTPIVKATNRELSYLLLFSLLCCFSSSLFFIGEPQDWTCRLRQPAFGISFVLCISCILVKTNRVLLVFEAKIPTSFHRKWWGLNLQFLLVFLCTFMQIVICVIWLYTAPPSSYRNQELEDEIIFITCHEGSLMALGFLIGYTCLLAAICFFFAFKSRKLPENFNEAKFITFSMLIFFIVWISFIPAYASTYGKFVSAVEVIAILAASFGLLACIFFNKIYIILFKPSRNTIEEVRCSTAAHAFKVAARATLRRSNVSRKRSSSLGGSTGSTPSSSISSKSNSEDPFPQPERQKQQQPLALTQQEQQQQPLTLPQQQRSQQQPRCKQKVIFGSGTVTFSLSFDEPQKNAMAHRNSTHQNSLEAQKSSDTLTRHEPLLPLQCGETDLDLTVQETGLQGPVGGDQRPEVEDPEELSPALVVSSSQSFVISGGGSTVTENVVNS
Test: In-vitro assay of calcimimetics through modulation of Calcium Sensing Receptor (intracellular calcium, FLIPR)
Format: cell-based
Conditions: HEK293 cells stably expressing hCaSR, increase in intracellular calcium, Fluo4NW dye, 0.3 mM CaCl2, 8-point assay, read-out: EC50 Range
Description: In-vitro assay method of Calcimimetics through modulation of Calcium Sensing Receptor (CaSR):
The ability of the compounds to modulate Calcium sensing receptor is determined by measuring an increase in intracellular calcium [Ca^2+]i. Stably transfected HEK293 cells expressing hCaSR_pTriEx-3 hygro vector are developed. Cells are grown overnight on a 96-well plate to 80% confluency in Ham's F12 containing 20% FBS at 37° C., 5% CO2. Subsequently, cells are washed extensively with 20 mM HEPES buffer containing 126 mM […], 1 mM MgCl2 and 4 mM KCl to remove serum components that might interfere with the assay. Cells are loaded with calcium sensing Fluo4NW dye in HEPES base buffer containing 0.1% BSA and 1 mg/ml glucose for 30 minutes to measure changes in intracellular calcium. The activities of the compounds are measured in FLIPR using 0.3 mM CaCl2 in 20 mM HEPES base buffer. The effectiveness of the compound to modulate receptor activity is determined by calculating the EC50 responses for that compound in an 8-point assay and plotted using GraphPad Prism 5.

Row | EC50 | SMILES
1 | < 20 nM | Cc1ccc([C@@H]2C[C@H](CN[C@H](C)c3cccc4ccccc34)Oc3ccccc32)cc1C(=O)O [Example 84b, 2-Methyl-5-((2R,4S)-2-((((R)-1-(naphthalen-1-yl)ethyl)amino)methyl)chroman-4-yl)benzoic acid hydrochloride]
2 | < 20 nM | Cc1cc([C@@H]2C[C@H](CN[C@H](C)c3cccc4ccccc34)Oc3ccccc32)ccc1C(=O)O [Example 99b, 2-Methyl-4-((2R,4S)-2-((((R)-1-(naphthalen-1-yl)ethyl)amino)methyl)chroman-4-yl)benzoic acid hydrochloride]
3 | 20 to 50 nM | C[C@@H](NC[C@H]1C[C@@H](c2ccc(CC(=O)O)cc2)c2ccccc2O1)c1cccc2ccccc12 [Example 107b, 2-(4-((2R,4S)-2-((((R)-1-(Naphthalen-1-yl)ethyl)amino)methyl)chroman-4-yl)phenyl)acetic acid hydrochloride]
4 | < 20 nM | Cc1c(C(=O)O)ccc(F)c1[C@@H]1C[C@H](CN[C@H](C)c2cccc3ccccc23)Oc2ccccc21 [Example 81b, 4-Fluoro-2-methyl-3-((2R,4R)-2-((((R)-1-(naphthalen-1-yl)ethyl)amino)methyl)chroman-4-yl)benzoic acid hydrochloride]
5 | < 20 nM | C[C@@H](NC[C@H]1C[C@@H](c2cccc(C(=O)NCC(=O)O)c2)c2ccccc2O1)c1cccc2ccccc12 [Example 140, 2-(3-((2R,4S)-2-((((R)-1-(Naphthalen-1-yl)ethyl)amino)methyl)chroman-4-yl)benzamido) acetic acid hydrochloride]
6 | < 20 nM | Cc1cc(C(=O)O)cc([C@@H]2C[C@H](CN[C@H](C)c3cccc4ccccc34)Oc3ccccc32)c1 [Example 75, 3-Methyl-5-((2R,4S)-2((((R)-1-(naphthalen-1-yl)ethyl)amino)methyl)chroman-4-yl)benzoic acid hydrochloride]
7 | < 20 nM | COc1c(C(=O)O)cccc1[C@@H]1C[C@H](CN[C@H](C)c2cccc3ccccc23)Oc2ccccc21 [Example 89b, 2-Methoxy-3-((2R,4R)-2-((((R)-1-(naphthalen-1-yl)ethyl)amino)methyl)chroman-4-yl)benzoic acid hydrochloride]
8 | < 20 nM | C[C@@H](NC[C@H]1C[C@@H](c2ccc(OCC(=O)O)cc2)c2ccccc2O1)c1cccc2ccccc12 [Example 105b, 2-(4-((2R,4S)-2-((((R)-1-(Naphthalen-1-yl)ethyl)amino)methyl)chroman-4-yl)phenoxy)acetic acid hydrochloride]
9 | 50 to 200 nM | COc1cc([C@@H](C)NC[C@H]2C[C@@H](c3ccc(C(=O)O)c(C)c3)c3ccccc3O2)ccc1F [Example 114, 4-((2R,4S)-2-((((R)-1-(4-Fluoro-3-methoxyphenyl)ethyl)amino)methyl)chroman-4-yl)-2-methylbenzoic acid hydrochloride]
10 | 20 to 50 nM | C[C@@H](NC[C@H]1C[C@@H](c2cc(F)c(C(=O)O)c(F)c2)c2ccccc2O1)c1cccc2ccccc12 [Example 101, 2,6-Difluoro-4-((2R,4S)-2-((((R)-1-(naphthalen-1-yl)ethyl)amino)methyl)chroman-4-yl)benzoic acid hydrochloride]
11 | < 20 nM | C[C@@H](NC[C@H]1C[C@@H](c2ccc(F)c(OCC(=O)O)c2)c2ccccc2O1)c1cccc2ccccc12 [Example 93b, 2-(2-Fluoro-5-((2R,4S)-2-((((R)-1-(naphthalen-1-yl)ethyl)amino)methyl)chroman-4-yl)phenoxy)acetic acid hydrochloride]
12 | < 20 nM | Cc1ccc([C@@H]2C[C@H](CCN[C@H](C)c3cccc4ccccc34)Oc3ccccc32)cc1C(=O)O [Example 124, 2-Methyl-5-((2R,4S)-2-(2-(((R)-1-(naphthalen-1-yl)ethyl)amino)ethyl)chroman-4-yl)benzoic acid hydrochloride]
13 | 20 to 50 nM | COc1c(C(=O)O)cccc1[C@H]1C[C@H](CN[C@H](C)c2cccc3ccccc23)Oc2ccccc21 [Example 89a, 2-Methoxy-3-((2R,4S)-2-((((R)-1-(naphthalen-1-yl)ethyl)amino)methyl)chroman-4-yl)benzoic acid hydrochloride]
14 | < 20 nM | C[C@@H](NCCC[C@H]1C[C@@H](c2ccc(C(=O)O)cc2)c2ccccc2O1)c1ccc(F)c2ccccc12 [Example 136, 4-((2S,4S)-2-(3-(((R)-1-(4-Fluoronaphthalen-1-yl)ethyl)amino)propyl)chroman-4-yl)benzoic acid hydrochloride]
15 | 50 to 200 nM | COc1cc([C@@H](C)NC[C@H]2C[C@@H](c3ccc(C)c(C(=O)O)c3)c3ccccc3O2)ccc1F [Example 116, 5-((2R,4S)-2-((((R)-1-(4-Fluoro-3-methoxyphenyl)ethyl)amino)methyl)chroman-4-yl)-2-methyl benzoic acid hydrochloride]
16 | < 20 nM | C[C@@H](NC[C@H]1C[C@@H](c2ccc(C(F)(F)F)c(C(=O)O)c2)c2ccccc2O1)c1cccc2ccccc12 [Example 83, 5-((2R,4S)-2-((((R)-1-(Naphthalen-1-yl)ethyl)amino)methyl)chroman-4-yl)-2-(trifluoromethyl)benzoic acid hydrochloride]
17 | < 20 nM | Cc1ccc([C@@H]2C[C@H](CN[C@H](C)c3ccc(F)c4ccccc34)Oc3ccccc32)cc1C(=O)O [Example 119b, 5-((2R,4S)-2-((((R)-1-(4-Fluoronaphthalen-1-yl)ethyl)amino)methyl)chroman-4-yl)-2-methyl benzoic acid hydrochloride]
18 | < 20 nM | C[C@@H](NC[C@H]1C[C@@H](c2ccc(C(=O)O)c(F)c2)c2ccccc2O1)c1cccc2ccccc12 [Example 104, 2-Fluoro-4-((2R,4S)-2-((((R)-1-(naphthalen-1-yl)ethyl)amino)methyl)chroman-4-yl)benzoic acid hydrochloride]
19 | 50 to 200 nM | C[C@@H](NC[C@H]1C[C@@H](c2ccc(C(=O)O)cc2)c2ccccc2O1)c1cccc2ccccc12 [Example 98b, 4-((2R,4S)-2-((((R)-1-(Naphthalen-1-yl)ethyl)amino)methyl)chroman-4-yl)benzoic acid hydrochloride]
20 | 50 to 200 nM | C[C@@H](NC[C@H]1C[C@H](c2ccc(C(C)(C)C(=O)O)cc2)c2ccccc2O1)c1cccc2ccccc12 [Example 108a, 2-Methyl-2-(4-((2R,4R)-2-((((R)-1-(naphthalen-1-yl)ethyl)amino)methyl)chroman-4-yl)phenyl)propanoic acid hydrochloride]
21 | 50 to 200 nM | CCN(C)C(=O)c1cc([C@@H]2C[C@H](CN[C@H](C)c3cccc4ccccc34)Oc3ccccc32)ccc1C [Example 145, N-Ethyl-N,2-dimethyl-5-((2R,4S)-2-((((R)-1-(naphthalen-1-yl)ethyl)amino)methyl)chroman-4-yl)benzamide hydrochloride]
22 | < 20 nM | C[C@@H](NC[C@H]1C[C@H](c2ccc(F)c(OCC(=O)O)c2)c2ccccc2O1)c1cccc2ccccc12 [Example 93a, 2-(2-Fluoro-5-((2R,4R)-2-((((R)-1-(naphthalen-1-yl)ethyl)amino)methyl)chroman-4-yl)phenoxy)acetic acid hydrochloride]
23 | < 20 nM | Cc1ccc([C@@H]2C[C@H](CN[C@H](C)c3cccc4ccccc34)Oc3ccccc32)c(C)c1C(=O)O [Example 67, 2,6-Dimethyl-3-((2R,4S)-2-((((R)-1-(naphthalen-1-yl)ethyl)amino)methyl)chroman-4-yl)benzoic acid hydrochloride]
24 | 50 to 200 nM | Cc1c(C(=O)O)ccc(F)c1[C@H]1C[C@H](CN[C@H](C)c2cccc3ccccc23)Oc2ccccc21 [Example 81a, 4-Fluoro-2-methyl-3-((2R,4S)-2-((((R)-1-(naphthalen-1-yl)ethyl)amino)methyl)chroman-4-yl)benzoic acid hydrochloride]

Reference: US9598391B2, “Substituted chroman compounds as calcium sensing receptor modulators” (LUPIN LIMITED, priority 2012, dated 2017)
